Among the data in US7411083B2, “Substituted acetic acid derivatives” (Wyeth, priority 2003, dated 2008) are inhibition values, retold here.

Molecules are shown by their SMILES.

The target in this assay is T1, recombinant human plasminogen activator inhibitor-1 (PAI-1) (Homo sapiens, UniProt P05121).
T1 construct: purchased Molecular Innovations, Royal Oak, Mich
T1 sequence (P05121 24-402): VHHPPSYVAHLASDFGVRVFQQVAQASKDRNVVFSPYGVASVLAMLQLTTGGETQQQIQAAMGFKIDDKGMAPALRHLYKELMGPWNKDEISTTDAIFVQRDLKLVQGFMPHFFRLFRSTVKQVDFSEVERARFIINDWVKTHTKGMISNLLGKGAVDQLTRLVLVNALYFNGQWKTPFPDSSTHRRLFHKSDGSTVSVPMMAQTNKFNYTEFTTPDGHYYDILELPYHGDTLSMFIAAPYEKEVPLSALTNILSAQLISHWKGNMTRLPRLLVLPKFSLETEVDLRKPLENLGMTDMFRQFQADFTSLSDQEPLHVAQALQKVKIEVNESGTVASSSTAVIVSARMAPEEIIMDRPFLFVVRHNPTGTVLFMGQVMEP
As to the kind of experiment: Screening for PAI-1 inhibition (residual tPA activity, Spectrozyme-tPA chromogenic substrate). In kind it is biochemical. As to conditions: test compound at 100 Um; pH 6.6 buffer, 140 nM PAI-1, 70 nM tPA. A digest of the protocol: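 PAI-1 at 140 nM, pH 6.6 buffer, preincubated 1 h at room temperature with compound (1-100 μM final, ≤0.2% DMSO), then 70 nM tPA added for 30 min. Residual tPA activity read by Spectrozyme-tPA absorbance at 405 nm at 0 and 60 min. Inhibition taken as residual tPA activity.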
In the case of `O=C(O)CO/N=C/c1cccc(-c2ccc(OCc3ccc(Cl)c(Cl)c3)cc2)c1` [Compound 83, {[((1E)-{4′-[(3,4-dichlorobenzyl)oxy]-1,1′-biphenyl-3-yl}methylidene)amino]oxy}acetic acid], the inhibition (as a rule, the drop in the measured response relative to a control, in per cent) at 100 µM is 57%. With `O=C(O)CO/N=C/c1cccc(-c2ccc(OCc3ccc4ccccc4c3)cc2)c1` [Compound 84, [({(1E)-[4′-(2-naphthylmethoxy)-1,1′-biphenyl-3-yl]methylidene}amino)oxy]acetic acid], the inhibition at 100 µM was found to be 30%. In the case of `Cc1ccc(COc2ccc(-c3cccc(/C=N/OCC(=O)O)c3)cc2)cc1` [Compound 85, {[((1E)-{4′-[(4-methylbenzyl)oxy]-1,1′-biphenyl-3-yl}methylidene)amino]oxy}acetic acid] it was 34%. Consider `Cc1cccc(COc2ccc(-c3cccc(/C=N/OCC(=O)O)c3)cc2)c1` [Compound 86, {[((1E)-{4′-[(3-methylbenzyl)oxy]-1,1′-biphenyl-3-yl}methylidene)amino]oxy}acetic acid], for which the inhibition at 100 µM was 22%. Consider `O=C(O)CO/N=C/c1cccc(-c2ccc(OCc3c(Cl)cccc3Cl)cc2)c1` [Compound 87, {[((1E)-{4′-[(2,6-dichlorobenzyl)oxy]-1,1′-biphenyl-3-yl}methylidene)amino]oxy}acetic acid], for which the inhibition at 100 µM was determined as 85%. For `O=C(O)CO/N=C/c1ccc(-c2cccc(OCc3ccc(C(F)(F)F)cc3)c2)cc1` [Compound 88, ({[(1E)-(3′-{[4-(trifluoromethyl)benzyl]oxy}-1,1′-biphenyl-4-yl)methylidene]amino}oxy)acetic acid], the inhibition at 100 µM amounted to 34%.

As for `CC(C)(C)c1ccc(COc2cccc(-c3ccc(/C=N/OCC(=O)O)cc3)c2)cc1` [Compound 89, {[((1E)-{3′-[(4-tert-butylbenzyl)oxy]-1,1′-biphenyl-4-yl}methylidene)amino]oxy}acetic acid], the inhibition at 100 µM was 57%. `O=C(O)CO/N=C/c1ccc(-c2cccc(OCc3cc(C(F)(F)F)cc(C(F)(F)F)c3)c2)cc1` [Compound 90, ({[(1E)-(3′-{[3,5-bis(trifluoromethyl)benzyl]oxy}-1,1′-biphenyl-4-yl)methylidene]amino}oxy)acetic acid]: the inhibition at 100 µM is 30%.

Turning to `O=C(O)CO/N=C/c1ccc(-c2cccc(OCc3cccc(Br)c3)c2)cc1` [Compound 91, {[((1E)-{3′-[(3-bromobenzyl)oxy]-1,1′-biphenyl-4-yl}methylidene)amino]oxy}acetic acid], the inhibition at 100 µM came out at 77%. In the case of `O=C(O)CO/N=C/c1ccc(-c2cccc(OCc3cccc(Cl)c3)c2)cc1` [Compound 92, {[((1E)-{3′-[(3-chlorobenzyl)oxy]-1,1′-biphenyl-4-yl}methylidene)amino]oxy}acetic acid] it was 76%; in that of `O=C(O)CO/N=C/c1ccc(-c2cccc(OCc3ccccc3)c2)cc1` [Compound 93, [({(1E)-[3′-(benzyloxy)-1,1′-biphenyl-4-yl]methylidene}amino)oxy]acetic acid], 85%; in that of `O=C(O)CO/N=C/c1ccc(-c2cccc(OCc3cccc(C(F)(F)F)c3)c2)cc1` [Compound 94, ({[(1E)-(3′-{[3-(trifluoromethyl)benzyl]oxy}-1,1′-biphenyl-4-yl)methylidene]amino}oxy)acetic acid], 74%. Turning to `O=C(O)CO/N=C/c1ccc(-c2cccc(OCc3ccc(Cl)cc3)c2)cc1` [Compound 95, {[((1E)-{3′-[(4-chlorobenzyl)oxy]-1,1′-biphenyl-4-yl}methylidene)amino]oxy}acetic acid], the inhibition at 100 µM was determined as 27%.

In the case of `O=C(O)CO/N=C/c1ccc(-c2cccc(OCc3ccccc3Cl)c2)cc1` [Compound 96, {[((1E)-{3′-[(2-chlorobenzyl)oxy]-1,1′-biphenyl-4-yl}methylidene)amino]oxy}acetic acid], the inhibition at 100 µM was 61%.

`O=C(O)CO/N=C/c1ccc(-c2cccc(OCc3ccc(Cl)c(Cl)c3)c2)cc1` [Compound 97, {[((1E)-{3′-[(3,4-dichlorobenzyl)oxy]-1,1′-biphenyl-4-yl}methylidene)amino]oxy}acetic acid]: the inhibition at 100 µM came to 65%. With `O=C(O)CO/N=C/c1ccc(-c2cccc(OCc3ccc4ccccc4c3)c2)cc1` [Compound 98, [({(1E)-[3′-(2-naphthylmethoxy)-1,1′-biphenyl-4-yl]methylidene}amino)oxy]acetic acid], the inhibition at 100 µM was 46%.

With `Cc1ccc(COc2cccc(-c3ccc(/C=N/OCC(=O)O)cc3)c2)cc1` [Compound 99, {[((1E)-{3′-[(4-methylbenzyl)oxy]-1,1′-biphenyl-4-yl}methylidene)amino]oxy}acetic acid], the inhibition at 100 µM was found to be 84%. As for `Cc1cccc(COc2cccc(-c3ccc(/C=N/OCC(=O)O)cc3)c2)c1` [Compound 100, {[((1E)-{3′-[(3-methylbenzyl)oxy]-1,1′-biphenyl-4-yl}methylidene)amino]oxy}acetic acid], the inhibition at 100 µM is 63%.

Take `O=C(O)CO/N=C/c1ccc(-c2cccc(OCc3c(Cl)cccc3Cl)c2)cc1` [Compound 101, {[((1E)-{3′-[(2,6-dichlorobenzyl)oxy]-1,1′-biphenyl-4-yl}methylidene)amino]oxy}acetic acid]: the inhibition at 100 µM was 10%. In the case of `CC(C)(C)c1ccc(COc2ccc(-c3ccc(/C=N/OCC(=O)O)cc3)cc2)cc1` [Compound 102, {[((1E)-{4′-[(4-tert-butylbenzyl)oxy]-1,1′-biphenyl-4-yl}methylidene)amino]oxy}acetic acid] it was 26%; in that of `O=C(O)CO/N=C/c1ccc(-c2ccc(OCc3cccc(Br)c3)cc2)cc1` [Compound 103, {[((1E)-{4′-[(3-bromobenzyl)oxy]-1,1′-biphenyl-4-yl}methylidene)amino]oxy}acetic acid], 62%.

Turning to `O=C(O)CO/N=C/c1ccc(-c2ccc(OCc3cccc(Cl)c3)cc2)cc1` [Compound 104, {[((1E)-{4′-[(3-chlorobenzyl)oxy]-1,1′-biphenyl-4-yl}methylidene)amino]oxy}acetic acid], the inhibition at 100 µM is 5%. `O=C(O)CO/N=C/c1ccc(-c2ccc(OCc3ccccc3)cc2)cc1` [Compound 105, [({(1E)-[4′-(benzyloxy)-1,1′-biphenyl-4-yl]methylidene}amino)oxy]acetic acid]: the inhibition at 100 µM was found to be 5%.

For the compound `O=C(O)CO/N=C/c1ccc(-c2ccc(OCc3cccc(C(F)(F)F)c3)cc2)cc1` [Compound 106, ({[(1E)-(4′-{[3-(trifluoromethyl)benzyl]oxy}-1,1′-biphenyl-4-yl)methylidene]amino}oxy)acetic acid], the inhibition at 100 µM is 8%. In the case of `O=C(O)CO/N=C/c1ccc(-c2ccc(OCc3ccccc3Cl)cc2)cc1` [Compound 107, {[((1E)-{4′-[(2-chlorobenzyl)oxy]-1,1′-biphenyl-4-yl}methylidene)amino]oxy}acetic acid], the inhibition at 100 µM was 30%. With `O=C(O)CO/N=C/c1ccc(-c2ccc(OCc3ccc(Cl)c(Cl)c3)cc2)cc1` [Compound 108, {[((1E)-{4′-[(3,4-dichlorobenzyl)oxy]-1,1′-biphenyl-4-yl}methylidene)amino]oxy}acetic acid], the inhibition at 100 µM was 58%. Consider `Cc1ccc(COc2ccc(-c3ccc(/C=N/OCC(=O)O)cc3)cc2)cc1` [Compound 109, {[((1E)-{4′-[(4-methylbenzyl)oxy]-1,1′-biphenyl-4-yl}methylidene)amino]oxy}acetic acid], for which the inhibition at 100 µM was 7%. Take `Cc1cccc(COc2ccc(-c3ccc(/C=N/OCC(=O)O)cc3)cc2)c1` [Compound 110, {[((1E)-{4′-[(3-methylbenzyl)oxy]-1,1′-biphenyl-4-yl}methylidene)amino]oxy}acetic acid]: the inhibition at 100 µM was 6%. Turning to `O=C(O)CO/N=C/c1ccc(-c2ccc(OCc3c(Cl)cccc3Cl)cc2)cc1` [Compound 111, {[((1E)-{4′-[(2,6-dichlorobenzyl)oxy]-1,1′-biphenyl-4-yl}methylidene)amino]oxy}acetic acid], the inhibition at 100 µM stood at 38%. In the case of `CC(C)(C)c1ccc(COc2ccc(/C=N/OCC(=O)O)cc2OCc2ccc(C(C)(C)C)cc2)cc1` [Compound 112, {[((1E)-{3,4-bis[(4-tert-butylbenzyl)oxy]phenyl}methylidene)amino]oxy}acetic acid], the inhibition at 100 µM was 65%. As to `O=C(O)CO/N=C/c1ccc(OCc2ccc(F)cc2)c(OCc2ccc(F)cc2)c1` [Compound 113, {[((1E)-{3,4-bis[(4-fluorobenzyl)oxy]phenyl}methylidene)amino]oxy}acetic acid], the inhibition at 100 µM came out at 91%. As for `O=C(O)CO/N=C/c1ccc(OCc2ccc(C(F)(F)F)cc2)c(OCc2ccc(C(F)(F)F)cc2)c1` [Compound 114, ({[(1E)-(3,4-bis{[4-(trifluoromethyl)benzyl]oxy}phenyl)methylidene]amino}oxy)acetic acid], the inhibition at 100 µM came out at 93%.

As to `O=C(O)CO/N=C/c1ccc(OCc2ccc(Br)cc2)c(OCc2ccc(Br)cc2)c1` [Compound 115, {[((1E)-{3,4-bis[(4-bromobenzyl)oxy]phenyl}methylidene)amino]oxy}acetic acid], the inhibition at 100 µM was determined as 87%. Take `O=C(O)CO/N=C/c1ccc(OCc2cccc(Cl)c2)c(OCc2cccc(Cl)c2)c1` [Compound 116, {[((1E)-{3,4-bis[(3-chlorobenzyl)oxy]phenyl}methylidene)amino]oxy}acetic acid]: the inhibition at 100 µM worked out at 92%. In the case of `O=C(O)CO/N=C/c1ccc(OCc2cccc(Br)c2)c(OCc2cccc(Br)c2)c1` [Compound 117, {[((1E)-{3,4-bis[(3-bromobenzyl)oxy]phenyl}methylidene)amino]oxy}acetic acid], the inhibition at 100 µM was determined as 88%. In the case of `Cc1cccc(COc2ccc(/C=N/OCC(=O)O)cc2OCc2cccc(C)c2)c1` [Compound 118, {[((1E)-{3,4-bis[(3-methylbenzyl)oxy]phenyl}methylidene)amino]oxy}acetic acid] it was 92%.
